Common to all, as to assay: NCI anticancer screen, dose series, 48 h
The test system of test [1] is SNB-19 CNS.
Test [2] has as its system UACC-62 melanoma.
In test [3] the test system is HCC-2998 colon.
Test [4] relates to HOP-92 NSCLC.
In test [5] the test system is ACHN renal.
For test [6], the system named is SF-539 CNS.
Test [7] relates to 786-0 renal.
Test [8] relates to T-47D breast.
Test [9] has as its system A498 renal.
The test system of test [10] is SNB-78 CNS.
Test [11] deals with DMS 273 small cell lung.

Each structure is given as a SMILES string.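 Cells were grown in 96-well plates and exposed to each compound for 48 hours at five concentrations; endpoints were interpolated linearly between bracketing concentrations, or set to the highest concentration if not reached. TGI denotes the concentration required for complete inhibition of growth.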 Where a SMILES comes first, the peptide text is derived from it. The star is where a group is joined. Boc = CC(C)(C)OC(=O)*; OBn = c1ccc(CO*)cc1

In the case of `NC(N)=NS(=O)(=O)c1ccc(NC(=O)c2ccc3nc4ccccc4c(Nc4ccc(S(N)(=O)=O)cc4)c3c2)cc1`, the TGI in [1], in test [2], in [3], in test [4], in [5] and in [6] was more than 100 µM each time. The TGI in [7], in [8] and in test [9] was more than 100 µM in each case.
Take `O=c1[nH]c(Nc2cccc(Cl)c2)nc2nc[nH]c12`: the TGI in test [1], in [2], in test [3], in test [4], in [5] and in test [6] was more than 100 µM in each case. Moreover, the TGI in [7], in [8] and in test [9] was more than 100 µM throughout.
`C#CCn1c(=O)c(C#N)c(O)c2cc3ccccc3nc21`: the TGI in test [1], in test [2], in test [10], in test [3], in test [4] and in [6] was more than 100 µM in each case. For the same compound, the TGI in test [11] and in test [9] was more than 100 µM throughout.
Consider `COc1cc(S(=O)(=O)Nc2ccc(-c3csc(N4C(=O)CSC4c4ccccc4)n3)cc2)ccc1Cl` (centres undefined), for which the TGI is more than 100 µM in test [1]; 39.6 µM in test [2]; 42.4 µM in test [3]; 54.4 µM in test [4]; more than 100 µM in [5]; more than 100 µM in test [6]. The figures for the TGI in test [7], in test [8] and in [9] were more than 100 µM, 44.7 µM and 3.61 µM, respectively.
As to `CC(C)(C)OC(=O)NC(Cc1ccccc1)C(=O)NC(Cc1ccccc1)C(=O)NCC(=O)OCc1ccccc1` (stereo not drawn) (Boc-Phe-Phe-Gly-OBn; configuration not given here), the TGI was more than 100 µM in [1]; 38.7 µM in [2]; 29.8 µM in test [3]; more than 100 µM in test [4]; more than 100 µM in test [5]; 44.1 µM in test [6]. Moreover, the TGI in test [7] is 31.6 µM; in test [8] it was more than 100 µM; in [9] it was more than 100 µM.
As for `c1ccc2c(Cc3nnc4sc(SSc5nn6c(Cc7c[nH]c8ccccc78)nnc6s5)nn34)c[nH]c2c1`, the TGI in test [1] is more than 100 µM; in test [2], 33.7 µM; in [3] it was 30.4 µM; in test [4], more than 100 µM; in [5] it was more than 100 µM; in test [6] it was 50.8 µM. In addition, the TGI in test [7] was 47.6 µM; in test [8], more than 100 µM; in test [9], 44.2 µM.
Regarding `Cc1ccc(-c2n[nH]c(=O)[nH]2)cc1[N+](=O)[O-]`, the TGI in test [1], in test [2], in [3], in test [4], in test [5] and in test [6] was more than 100 µM in each case. For the same compound, the TGI in test [7], in [8] and in test [9] was more than 100 µM throughout.
Take `Cc1cc(=O)oc2cc(O)ccc12`: the TGI in test [1], in [2], in test [3], in test [4], in test [5] and in test [6] was more than 100 µM each time. In addition, the TGI in [7], in test [8] and in test [9] was more than 100 µM each time.
Consider `Cc1ccc(C(=O)/C(C#N)=C/Nc2c(C)n(C)n(-c3ccccc3)c2=O)cc1`, for which the TGI in test [1], in [2], in test [3], in [4], in [5] and in [6] was more than 100 µM in each case. The TGI in test [7], in [8] and in [9] was more than 100 µM each time.
On to `COc1ccc2nc3cc(Cl)ccc3c(NCCNCCCNC(=O)c3cc(-c4ccccc4)nc4ccccc34)c2c1`, for which the TGI in test [1], in test [2], in [3], in test [4], in [5] and in [6] was more than 100 µM each time. Also, the TGI in test [7], in test [8] and in [9] was more than 100 µM each time.
For `COc1c2cc(C(C)(C)C)cc1Cc1cccc(c1O)Cc1cc(C(C)(C)C)cc(c1OC)Cc1cccc(c1O)Cc1cc(C(C)(C)C)cc(c1OC)Cc1cccc(c1O)C2`, the TGI in [1], in test [2], in test [3], in [4], in test [5] and in [6] was more than 100 µM throughout. Also, the TGI in [7], in test [8] and in test [9] was more than 100 µM each time.
For `C=CC[C@@]1(C(=O)OC)[C@H](Sc2ccccc2)C1(C)C`, the TGI in test [1] is more than 100 µM; in test [2] it was more than 100 µM; in test [3], 96.2 µM; in test [4] it was 76.4 µM; in [5], more than 100 µM; in test [6], more than 100 µM. Besides, the TGI in test [7], in test [8] and in test [9] was more than 100 µM each time.
In the case of `O=C1/C(=C2\Sc3c(ccc(Cl)c3Cl)C2=O)Sc2c1ccc(Cl)c2Cl`, the TGI in test [1], in [2], in [3], in test [4], in [5] and in test [6] was more than 100 µM in each case. The TGI in test [7], in test [8] and in test [9] was more than 100 µM each time.
Turning to `CC(=O)c1cc2c(s1)C(=O)c1ccccc1C2=O`, the TGI in test [1] stood at 5.57 µM; in test [2], 7.01 µM; in [3] it was 18.3 µM; in test [4] it was 21.6 µM; in test [5], 4.02 µM; in [6], 8.32 µM. The TGI in test [7] is more than 71.3 µM; in test [8], 20.6 µM; in test [9] it was more than 66.8 µM.
In the case of `c1ccc2c(c1)nc1n2CCSC1`, the TGI in test [1], in test [2], in test [3], in test [4], in test [5] and in [6] was more than 100 µM each time. The TGI in test [7], in [8] and in test [9] was more than 100 µM each time.

The record behind these values is PubChem BioAssay (NCI).
